Values belong to the molecule of their own block, whether it stands above or below them.
B2: cYFP-HDA19 (C-terminal half of YFP fused to A. thaliana HISTONE DEACETYLASE 19) (enzyme, Arabidopsis thaliana, UniProt O22446 1-501, looked up)
chain: MDTGGNSLASGPDGVKRKVCYFYDPEVGNYYYGQGHPMKPHRIRMTHALLAHYGLLQHMQVLKPFPARDRDLCRFHADDYVSFLRSITPETQQDQIRQLKRFNVGEDCPVFDGLYSFCQTYAGGSVGGSVKLNHGLCDIAINWAGGLHHAKKCEASGFCYVNDIVLAILELLKQHERVLYVDIDIHHGDGVEEAFYATDRVMTVSFHKFGDYFPGTGHIQDIGYGSGKYYSLNVPLDDGIDDESYHLLFKPIMGKVMEIFRPGAVVLQCGADSLSGDRLGCFNLSIKGHAECVKFMRSFNVPLLLLGGGGYTIRNVARCWCYETGVALGVEVEDKMPEHEYYEYFGPDYTLHVAPSNMENKNSRQMLEEIRNDLLHNLSKLQHAPSVPFQERPPDTETPEVDEDQEDGDKRWDPDSDMDVDDDRKPIPSRVKREAVEPDTKDKDGLKGIMERGKGCEVEVDESGSTKVTGVNPVGVEEASVKMEEEGTNKGGAEQAFPPKT
notes: expressed transiently in tobacco leaf cells; not shown: C-terminal half of YFP (cYFP) from vector pBiFCt-2in1-NN

Columns and labels:
[1] = test system: A. thaliana plants
Procedure: (§1) All experiments were carried out in controlled growth rooms at a temperature of 20-22° C. and a light intensity of 120-150 μmol PAR. Plants were grown either in long days (16 h light) or in short days (10 h light) as indicated in text and figure legends. Seeds of A. thaliana wildtype and transgenic lines were sterilized, stratified and germinated on soil or on agar plates. Agar plates contained half strength Murashige & Skoog (MS) media with 1% sucrose and 0.8% agar at pH 5.7. For germination assays media were supplemented with NaCl, ABA (cat. A1049,SIGMA), PAC (Fluka cat. 46046) or TSA (SIGMA cat.T8852) at the concentrations given in the figures. Germination rate was scored on day 6 after sowing by counting seedlings that had developed green cotyledons. Experiments with adult plants were carried out on soil or in hydroponic culture. For the latter, seeds were germinated on agar plates and 2-3 weeks old seedlings were placed perforated lids of black 1-litre plastic containers. The growth medium consisted in a minimal sufficient nutrient medium (Kellermeier et al., 2013, PLoS Genet. 7). For salt treatment NaCl powder was stirred directly into the growth container to obtain the desired concentration (as stated in the figures). Control media were stirred without adding NaCl. For controlled drought experiments, plants were grown on soil in pots according to a randomized design. Using previously reported methodology (Granier et al., 2006, New Phytologist 169:623-635; Skirycz et al., 2011, Nat. Biotech. 29:212-214), controlled watering was used to impose moderate water stress. After 14 days of plant growth in well-watered soil, watering was reduced so that the relative soil water content of the stressed plants was maintained at 50% of the normal watering regime. Control plants were watered normally.

[2] = test system: A. thaliana seeds; experiment: Germination assay on agar plates (seedlings with green cotyledons on day 6 after sowing); type: in vivo, Arabidopsis thaliana; conditions: for cumulative germination rate: increasing concentrations in agar, all lines (wildtype, hdc1-1, HDC1-OX), scored after 6 days
Procedure: as §1
Germinating seeds arrest growth and development if they encounter low water potentials in the environment (Finkelstein et al., 2008, In Annual Review of Plant Biology (Palo Alto: Annual Reviews), pp. 387-415). The post-imbibition response is mediated by ABA and can be mimicked by external application of ABA. […] To test a function of HDC1 in this process seeds of A. thaliana wildtype, hdc1-1, and HDC1-0X lines were imbibed to break dormancy, and subsequently plated out on agar plates containing different concentrations of NaCl, mannitol, ABA or PAC. A cumulative germination rate (encompassing all post-imbibition stages of seedling development) was scored as the number of seedlings that had developed cotyledons after 6 days.
To test whether histone deactylation was required for ABA-dependence of seed germination and for the effect of HDC1 on this process, we subjected germinating seeds to the histone deacetylase inhibitor trichostatin A (TSA).

[3] = biological target: T1, cYFP-SIN3 (C-terminal half of YFP fused to A. thaliana Sin3-like protein 3) (Arabidopsis thaliana, UniProt O48686 1-1330); experiment: ratiometric BiFC in tobacco leaf cells (nYFP-HDC1 with cYFP-SIN3)
T1 construct: negative control partner for nYFP-HDC1; also called AtSin3; SNL3; not shown: C-terminal half of YFP (cYFP) from vector pBiFCt-2in1-NN

[4] = biological target: T2, cYFP-HDA6 (C-terminal half of YFP fused to A. thaliana HISTONE DEACETYLASE 6) (Arabidopsis thaliana, UniProt Q9FML2 1-471); experiment: ratiometric BiFC in tobacco leaf cells (nYFP-HDC1 with cYFP-HDA6)
T2 construct: expressed transiently in tobacco leaf cells; not shown: C-terminal half of YFP (cYFP) from vector pBiFCt-2in1-NN
T2 sequence (looked up): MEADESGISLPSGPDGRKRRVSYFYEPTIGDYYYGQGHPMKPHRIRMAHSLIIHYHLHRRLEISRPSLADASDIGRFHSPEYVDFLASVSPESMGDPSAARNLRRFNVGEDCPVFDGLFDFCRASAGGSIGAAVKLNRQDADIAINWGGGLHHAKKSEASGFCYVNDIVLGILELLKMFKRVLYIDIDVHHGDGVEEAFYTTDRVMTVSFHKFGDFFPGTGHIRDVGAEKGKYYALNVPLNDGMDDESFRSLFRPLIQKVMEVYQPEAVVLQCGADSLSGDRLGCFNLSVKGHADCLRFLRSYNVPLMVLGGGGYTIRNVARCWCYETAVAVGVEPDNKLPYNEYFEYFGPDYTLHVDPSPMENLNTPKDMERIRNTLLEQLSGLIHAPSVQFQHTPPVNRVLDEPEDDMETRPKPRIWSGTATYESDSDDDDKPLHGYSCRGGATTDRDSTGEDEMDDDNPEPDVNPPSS
Procedure: (§2) Fluorescence in tobacco epidermal cells was assessed two days post infiltration using a CLSM-510-META-UV confocal microscope (Zeiss, Jena). For single protein localization GFP fluorescence was excited at 488 nm with light from an Argon laser and collected after passage through an NFT545 dichroic mirror with a 505 nm long pass filter. For co-localization experiments GFP fluorescence was collected with a 505-530 band pass filter. RFP fluorescence was excited at 543 nm with light from a Helium Neon laser and was collected after passage through an NFT545 dichroic mirror and a 560-615 nm band pass filter. YFP fluorescence was excited at 514 nm with light from Argon laser and was collected using lambda mode between 520-550 nm. Co-localization plane and line scans were evaluated using Zeiss LSM 510 AIM software (v3.2).
(§3) To investigate whether HDC1 is a member of HDAC protein complexes in plants we tested co-localization and direct interaction of HDC1 with known HDACs of A. thaliana. […] Direct interaction was investigated by bimolecular fluorescence complementation (BiFC). To avoid misinterpretation of background fluorescence we used a new ratiometric BiFC assay (Grefen and Blatt, 2012, supra) in which N- and C-terminal halves of yellow fluorescent protein (YFP), fused to HDC1 and HDA6/19 respectively, and a full-length RFP, are expressed from a single vector FIG. 4A). […]

[5] = biological target: B2; experiment: ratiometric BiFC in tobacco leaf cells (nYFP-HDC1 with cYFP-HDA19)
Procedure: as §2, §3

[6] = biological target: T3, nYFP-SIN3 (N-terminal half of YFP fused to A. thaliana Sin3-like protein 3) (Arabidopsis thaliana, UniProt O48686 1-1330); experiment: ratiometric BiFC in tobacco leaf cells (nYFP-SIN3 with cYFP-HDA19)
T3 construct: positive control partner for cYFP-HDA19; also called AtSin3; SNL3; not shown: N-terminal half of YFP (nYFP) from vector pBiFCt-2in1-NN

[7] = 150 mM NaCl for 24 hours, all lines

T3 sequence (O48686 whole entry, the tested form may be a part): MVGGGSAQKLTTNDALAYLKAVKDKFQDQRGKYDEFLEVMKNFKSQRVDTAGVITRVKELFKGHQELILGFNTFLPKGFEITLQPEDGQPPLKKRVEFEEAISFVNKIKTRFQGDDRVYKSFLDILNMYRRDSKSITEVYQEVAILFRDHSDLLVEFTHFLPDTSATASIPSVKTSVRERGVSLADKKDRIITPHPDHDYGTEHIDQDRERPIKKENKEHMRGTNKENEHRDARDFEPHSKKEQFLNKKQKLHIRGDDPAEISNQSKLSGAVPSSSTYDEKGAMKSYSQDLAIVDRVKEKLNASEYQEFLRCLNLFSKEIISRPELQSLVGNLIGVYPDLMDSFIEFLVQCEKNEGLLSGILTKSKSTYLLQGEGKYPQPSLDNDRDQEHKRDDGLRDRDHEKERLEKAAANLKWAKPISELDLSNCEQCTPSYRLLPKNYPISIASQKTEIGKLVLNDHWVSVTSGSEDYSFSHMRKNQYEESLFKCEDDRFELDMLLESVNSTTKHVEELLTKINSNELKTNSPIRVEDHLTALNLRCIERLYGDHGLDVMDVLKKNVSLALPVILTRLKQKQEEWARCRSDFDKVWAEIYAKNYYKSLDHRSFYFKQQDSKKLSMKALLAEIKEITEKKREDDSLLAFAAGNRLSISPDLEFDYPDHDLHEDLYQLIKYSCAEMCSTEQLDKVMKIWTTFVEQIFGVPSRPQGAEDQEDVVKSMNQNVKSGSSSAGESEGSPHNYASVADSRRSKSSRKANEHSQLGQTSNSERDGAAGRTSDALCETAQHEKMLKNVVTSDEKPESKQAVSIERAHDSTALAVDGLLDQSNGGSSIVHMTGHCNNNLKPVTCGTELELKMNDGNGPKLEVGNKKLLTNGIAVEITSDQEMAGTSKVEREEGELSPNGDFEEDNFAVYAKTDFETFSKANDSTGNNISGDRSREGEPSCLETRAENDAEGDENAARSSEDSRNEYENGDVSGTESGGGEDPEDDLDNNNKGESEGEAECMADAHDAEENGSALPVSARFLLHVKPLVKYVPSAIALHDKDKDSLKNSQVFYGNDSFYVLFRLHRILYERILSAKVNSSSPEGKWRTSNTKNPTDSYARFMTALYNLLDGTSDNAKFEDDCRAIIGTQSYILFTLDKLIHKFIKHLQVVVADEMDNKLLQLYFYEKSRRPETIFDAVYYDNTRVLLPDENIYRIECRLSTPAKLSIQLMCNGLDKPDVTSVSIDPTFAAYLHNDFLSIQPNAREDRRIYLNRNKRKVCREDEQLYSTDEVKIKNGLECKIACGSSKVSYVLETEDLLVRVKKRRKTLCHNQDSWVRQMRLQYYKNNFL
T1 sequence (O48686 whole entry, the tested form may be a part): as above

Molecule: [Cl-].[Na+] [NaCl]
- chlorosis or desiccation ([1]; 80 mM NaCl, 6 days): did not produce severe chlorosis or desiccation
- growth ([1]; 80 mM NaCl, 6 days, all lines): slowed growth
- shoot water content ([1]; 80 mM NaCl, after 6 days, all lines, from 92±1% without salt): 86±1%
- ABA biosynthesis (shoot ABA levels) [1, 7]: efficiently induced
- transcript levels of ABA-receptor PYL4 and 'drought-repressed' gene DR4 [1, 7]: efficiently repressed
- cumulative germination rate [2]: decrease in germination rates

Molecule: CC(C)(C)[C@@H](O)[C@@H](Cc1ccc(Cl)cc1)n1cncn1 (racemic) [PAC, paclobutrazol]
- cumulative germination rate [2]: decrease in germination rates

Molecule: CC(/C=C/C(=O)NO)=C\[C@@H](C)C(=O)c1ccc(N(C)C)cc1 [TSA, trichostatin A]
- effect on ABA-sensitivity of germination ([2]; HDC1-overexpressing lines): increased ABA-sensitivity
- effect on seed germination ([2]; low-micromolar TSA (0.3 or 3 μM), in the absence of ABA): no effect on seed germination
- effect on ABA-sensitivity of germination ([2]; wildtype plants, 0.3 μM TSA at 0.2 μM ABA): significant effect
- effect on ABA-sensitivity of germination ([2]; wildtype plants, 3 μM TSA at 0.4 μM ABA): significant effect
- effect on ABA-sensitivity of germination ([2]; wildtype plants, dose-dependent): increased the ABA-sensitivity

Molecule: CC1=CC(=O)CC(C)(C)[C@@]1(O)/C=C/C(C)=C\C(=O)O [ABA, Abscisic acid]
- cumulative germination rate [2]: decrease in germination rates

Molecule: OC[C@@H](O)[C@@H](O)[C@H](O)[C@H](O)CO [mannitol]
- cumulative germination rate [2]: decrease in germination rates

- binding result [3]: no binding
- binding result [4]: binds
- binding result [5]: binds
B1: nYFP-HDC1 (N-terminal half of YFP fused to full length A. thaliana HISTONE DEACETYLASE COMPLEX 1) (other)
chain: MSGVPKRSHEEGVTHPSSSSSVAKYPHEDSGSYPKSPHQPVTPPPAQVHHNHQQPHQHPQSQSQSQPQPHLQALPHPHSHSHSHSPLAAAASASAPYEVESRTVVKVARSEPRDGERRSPLPLVYRSPSLPTTVSSSDPHLTHAPVPMEPRDGAKDGREIRVESRENRSDGREIYGETKREIQGPKGDRDVKFERSVDDFSGKGNTGSYTRNDGREMYGETKREIQGPKSDRDAKFERPGDDFSGKSNAGSYTRDTKFDRENQNYNEQKGEIKMEKEGHAHLAWKEQKDYHRGKRVAEGSTANVDPWVVSRGNPQGPTEVGPKDLSAPVEGSHLEGRETVGENKVDAKNEDRFKEKDKKRKELKHREWGDRDKDRNDRRVSVLVGSVMSEPKEIGREERESDRWERERMEQKDRERNKEKDKDHIKREPRTGAEKEISQNEKELGEASAKPSEQEYVAPEQKKQNEPDNCEKDERETKEKRRERDGDSEAERAEKRSRISEKESEDGCLEGEGATEREKDAFNYGVQQRKRALRPRGSPQTTNRDNVRSRSQDNEGVQGKSEVSIVVYKVGECMQELIKLWKEYDLSHPDKSGDFANNGPTLEVRIPAEHVTATNRQVRGGQLWGTDIYTDDSDLVAVLMHTGYCRPTASPPPPTMQELRTTIRVLPSQDYYTSKLRNNVRSRAWGAGIGCSYRVERCYILKKGGGTIELEPSLTHSSTVEPTLAPMAVERSMTTRAAASNALRQQRFVREVTIQYNLCNEPWIKYSISIVADKGLKKPLFTSARLKKGEVLYLETHSCRYELCFAGEKTIKAIQASQQQSSHEAMETDNNNNKSQNHLTNGDKTDSDNSLIDVFRWSRCKKPLPQKLMRSIGFPLPADHIEVLEENLDWEDVQWSQTGVWIAGKEYTLARVHFLSPN
notes: Expressed transiently in tobacco leaf cells from a 2-in-1 BiFC vector together with the cYFP partner and a full-length RFP; not shown: N-terminal half of YFP (nYFP) from vector pBiFCt-2in1-NN

Molecule: B2
- binding result [6]: binds
